# Test results from patent US8815811B2, “Peptides and methods for their preparation and use” (Eli Lilly and Company, priority 2010, dated 2014).
# Where no end group is shown, it is not given here. [ ]: non-standard residue; d: D form. 1Nal = N[C@@H](Cc1cccc2ccccc12)C(=O)O; Aib = CC(C)(N)C(=O)O
# Assays:
# hGlucR = biological target: T1, hGlucR (Homo sapiens, UniProt P47871); test: Glucagon receptor (hGlucR) binding assay (SPA, I-125 glucagon); conditions: hGlucR 293HEK membranes
# T1 construct: expressed in transfected cells; host or cells: 293HEK, Hygromycin-selected, phD expression plasmid
# T1 sequence (P47871 26-477): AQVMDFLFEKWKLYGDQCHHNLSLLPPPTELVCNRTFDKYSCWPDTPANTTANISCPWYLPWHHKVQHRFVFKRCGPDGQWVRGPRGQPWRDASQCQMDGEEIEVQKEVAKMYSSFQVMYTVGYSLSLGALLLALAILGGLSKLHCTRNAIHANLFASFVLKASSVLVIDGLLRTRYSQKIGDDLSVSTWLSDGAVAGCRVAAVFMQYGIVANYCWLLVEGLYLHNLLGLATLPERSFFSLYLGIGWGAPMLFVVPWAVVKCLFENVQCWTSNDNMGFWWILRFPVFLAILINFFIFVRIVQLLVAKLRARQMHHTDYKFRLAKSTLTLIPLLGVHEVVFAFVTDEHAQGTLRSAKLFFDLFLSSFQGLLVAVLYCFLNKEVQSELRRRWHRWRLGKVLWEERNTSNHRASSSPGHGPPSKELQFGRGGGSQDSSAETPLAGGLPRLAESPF
# Procedure: The hGlucR cDNA is subcloned into the expression plasmid phD (Trans-activated expression of fully gamma-carboxylated recombinant human protein C, an antithrombotic factor. Grinnell, B. W., et. al., Bio/Technology 5: 1189-1192 (1987)). This plasmid DNA is transfected into 293HEK cells and selected with 200 μg/mL Hygromycin.
# Crude plasma membranes are prepared using cells from suspension culture. The cells are lysed on ice in hypotonic buffer containing 25 mM Tris HCl, pH 7.5, 1 mM MgCl2, DNAse1, 20 μ/mL, and Roche Complete™ Inhibitors without EDTA. The cell suspension is homogenized with a glass dounce homogenizer using a Teflon® pestle for 25 strokes. The homogenate is centrifuged at 4° C. at 1800×g for 15 minutes. The supernatant is collected and the pellet is resuspended in hypotonic buffer and rehomogenized. The mixture is centrifuged at 1800×g for 15 minutes. The second supernatant is combined with the first supernatant. […]
# The binding buffer contains 25 mM 4-(2-hydroxyethyl)-1-piperazineethanesulfonic acid (HEPES), pH 7.4, 2.5 mM CaCl2, 1 mM MgCl2, 0.1% fatty acid free BSA, 0.003% Tween20, and Roche Complete™ Inhibitors without EDTA. […] Plates are read with a PerkinElmer Life and Analytical Sciences Trilux MicroBeta® scintillation counter after 12 hours of settling time at room temperature.
# Results are calculated as a percent of specific I-125-glucagon binding in the presence of compound. […]
# [1] = tested on: diet-induced obese (DIO) mice; test: Effects on food intake, body weight and body composition in DIO mice; assay type: in vivo; conditions: for Fat mass loss (g fat weight change for 14 days) / Total food intake (g total for 14 days) / Overall weight loss (g weight change for 14 days): DIO mice
# Procedure: Effects on Food Intake, Body Weight and Body Composition in Diet-Induced Obese (DIO) Mice
# Three to four months old male diet-induced obese (DIO) mice are used. Animals are individually housed in a temperature-controlled (24° C.) facility with a 12 hour light/dark cycle (lights on 22:00), and have free access to food and water. After 2 weeks acclimation to the facility, mice are randomized to treatment groups (n=8-10/group) so that each group has similar mean body weight and fat mass. Before the experiment, mice are subcutaneously (sc) injected with vehicle solution and weighed for 7 days to acclimate them to the procedures.
# Vehicle or peptide analog (dose range 10-100 nmol/Kg) dissolved in vehicle is administered by sc injection to ad libitum fed DIO mice 30-90 minutes prior to the onset of the dark cycle […] for 2 to 4 weeks. Body weight and the weight of food plus the hopper are measured at the same time. Food consumed in the last 24 hours is calculated by subtracting current weight of food plus the hopper from that of the previous day. Absolute changes in body weight are calculated by subtracting the body weight of the animal prior to the first injection. On days −1 and 14, total fat mass is measured by nuclear magnetic resonance (NMR) using an Echo Medical System (Houston, Tex.) instrument. Fat free mass is calculated by subtracting fat mass from total body weight.
# Normal male Wistar rats = test: Intravenous glucose tolerance test in normal rats; assay type: in vivo; conditions: IVGTT; for insulin AUC: 0 to 30 min
# Procedure: Effects on Blood Glucose Excursion During an Intravenous Glucose Tolerance Test in Normal Rats
# Normal male Wistar rats (225-250 g) are used in the study. Animals are randomized into groups based on fed body weight and blood glucose. Animals are injected with vehicle or peptide analog (dose 3-400 μg peptide content/kg) 16 hours prior to the start of the test. Food is removed at the time of injection. Prior to the assay the animals are put under anesthesia, Phenobarbital 65 mg/kg i.p., and two catheters are inserted, one in the jugular vein and the other in the carotid artery. At time 0, animals are given 0.5 g glucose/kg through the venous catheter. Blood is collected from the carotid artery at time 0 (pre glucose), 2, 4, 6, 10, 20 and 30 minutes after glucose challenge. Glucose concentration is measured by glucometer. Insulin is measured by Mesoscale®. Efficacy is measured as the increase in total area under the insulin curve (=integrated plasma insulin values from t+0 to 30 min) as well as the area under the glucose curve which is a measure of the glucose excursion following the intravenous glucose challenge.
# [2] = tested on: ovariectomized (OvX) Sprague Dawley rats; test: Skeletal effects in ovariectomized (OvX) Sprague Dawley rats; assay type: in vivo
# Procedure: Example 4 was evaluated in 6 months old, ovariectomized (OvX; see Endocrinology 144: 2008-2015), Sprague Dawley rats. Doses of 0, 2.9, 9.7, or 29 nmol/kg were given to the rats as daily subcutaneous injections starting 9 days post surgery. […] It should be noted that loss in body weight (8% in this study) can directly affect bone mass. Bone strength is load dependent and losing weight results in a lower load on bones that carry weight and as a consequence less impact is observed on skeletal parameters of bones that carry weight, i.e. the femur cortical bone. Statistical significances were evaluated by a one-way ANOVA followed by a Dunnett's test.
# DIO mice = test: Oral glucose tolerance test after 2-week treatment in DIO mice; assay type: in vivo
# Procedure: Fifty-six hours after the last injection of compound in the DIO study above the animals were subjected to an oral glucose tolerance test. In short, mice were fasted for 16 hours prior to the start of the glucose tolerance test. At time 0, animals are given 2 g/kg dextrose by oral gavage. Blood is collected by tail bleeding taken 0, 15, 30, 60 and 120 minutes after glucose challenge. Glucose concentration is measured by glucometer.
# [3] = OvX rats, 2.9 nmol/kg daily sc, 35 days
# [4] = OvX rats, 9.7 nmol/kg daily sc, 35 days
# [5] = OvX rats, 29 nmol/kg daily sc, 35 days
substance,measurement,setting,value
"Aib^2, Aib^13, Nal^22, Aib^29, Cys^43(PEG20K), Cys^44 (PEG20K)-GIP (Y[Aib]EGTFTSDYSI[Aib]LDKIAQRA[1Nal]VQWLIA[Aib]KGKKQEWKHQITQC(PEG 20 kDa)C(PEG 20 kDa)-NH2) [Example 4]",Ki,hGlucR,> 7.49 µM
same,cumulative food intake and body weight compared to vehicle-treated mice,"[1]; 14-day DIO mouse studies, summary of Tables 6a and 6b",decreased
same,Fat mass loss (g fat weight change for 14 days),"[1]; Table 6a, 10 nmol/Kg",-3.6 ± 1.1 g
same,Total food intake (g total for 14 days),"[1]; Table 6a, 10 nmol/Kg",28.4 ± 1.8 g
same,Overall weight loss (g weight change for 14 days),"[1]; Table 6a, 10 nmol/Kg sc every 3 days",-4.5 ± 0.3 g
same,Fat mass loss (g fat weight change for 14 days),"[1]; Table 6a, 30 nmol/Kg",-4.7 ± 0.4 g
same,Total food intake (g total for 14 days),"[1]; Table 6a, 30 nmol/Kg",25.5 ± 2.6 g
same,Overall weight loss (g weight change for 14 days),"[1]; Table 6a, 30 nmol/Kg sc every 3 days",-6.0 ± 0.4 g
same,Fat mass loss (g fat weight change for 14 days),"[1]; Table 6b, 10 nmol/Kg",-3.6 ± 0.3 g
same,Overall weight loss (g weight change for 14 days),"[1]; Table 6b, 10 nmol/Kg",-4.9 ± 0.4 g
same,Total food intake (g total for 14 days),"[1]; Table 6b, 10 nmol/Kg",26.9 ± 1.5 g
same,insulin AUC and glucose AUC compared to vehicle-treated rats,Normal male Wistar rats,increased insulin AUC and decreased glucose AUC
same,glucose AUC,Normal male Wistar rats; 50 μg/Kg,7730 mg·min/dL
same,insulin AUC,Normal male Wistar rats; 50 μg/Kg 16 hours before test,150 ng·min/mL
same,glucose AUC,Normal male Wistar rats; 200 μg/Kg,7420 mg·min/dL
same,insulin AUC,Normal male Wistar rats; 200 μg/Kg 16 hours before test,161 ng·min/mL
same,"Bone mineral density (BMD) of lumbar vertebrae, MEAN",[2]; [3],557 mg/mL
same,"Changes in bone mineral content (BMC) of lumbar vertebrae, Bone mineral density (mg), MEAN",[2]; [3],9.75 mg
same,"Bone mineral density (BMD) of lumbar vertebrae, MEAN",[2]; [4],558 mg/mL
same,"Changes in bone mineral content (BMC) of lumbar vertebrae, Bone mineral density (mg), MEAN",[2]; [4],9.98 mg
same,"Bone mineral density (BMD) of lumbar vertebrae, MEAN",[2]; [5],588 mg/mL
same,"Changes in bone mineral content (BMC) of lumbar vertebrae, Bone mineral density (mg), MEAN",[2]; [5],10.49 mg
same,reduction of food consumption and body weight,"[2]; OvX rats, 2.9-29 nmol/kg daily, 35 days, dose responsive",up to 8%
same,OvX induced loss in bone mineral content and bone mineral density in lumbar vertebrae,"[2]; OvX rats, 35 days",dose-dependently prevented
same,adverse effect on bone mineral density or bone mineral content in the femur and lumbar vertebra,"[2]; OvX rats, 35 days",did not adversely affect
same,"effect in mid femur cortical bone (BMC, BMD)","[2]; OvX rats, 35 days",no effect
same,fat mass,"[2]; OvX rats, 35 days",decreased fat mass
same,lean mass,"[2]; OvX rats, 35 days",no change
same,non-fasted serum glucose and triglycerides,"[2]; OvX rats, 35 days",decreased
same,BMC and BMD in OvX rats,[2]; summary of Tables 8 and 9,improves
same,glucose excursion following an oral glucose load,"DIO mice; DIO mice, summary of Tables 7a and 7b",significantly reduced
same,"Glucose AUC, MEAN","DIO mice; Table 7a, OGTT 2 g/kg dextrose, 56 h after last injection, 10 nmol/Kg",11725 mg·min/dL
same,"Glucose AUC, MEAN","DIO mice; Table 7a, OGTT, 30 nmol/Kg",10907 mg·min/dL
same,"Glucose AUC, MEAN","DIO mice; Table 7b, OGTT, 10 nmol/Kg",13719 mg·min/dL
